According to patent US8530652B2, “Pyrrolopyrazoles, potent kinase inhibitors” (Agouron Pharmaceuticals, Inc., priority 2005, dated 2013):
Like-named read-outs stand apart in the source and are kept apart here.

Tests used:
[1] = biological target: PAK4 kinase domain (PAK4 KD) (Homo sapiens (Human), UniProt O96013); assay: PAK4 kinase domain enzymatic assay (coupled PK/LDH, NADH absorbance at 340 nm); format: biochemical
Description: Cloning, expression, and purification of recombinant PAK4 Kinase domain (PAK4 KD): The cDNA coding for PAK4 was amplified from the EST clone (#12) (purchased from Research Genetics) by using PCR. […] The PCR amplified product was cloned into Topo vector (Invitrogen Inc.), and verified by DNA sequencing. PAK4 KD was then subcloned into expression plasmid pET28a(+), pET24a(+), or pGST4.5. The recombinant plasmids containing PAK4 KD was transformed into BL21(DE3) cells for recombinant protein expression. […] The cells were then harvested and lyzed for protein purification. Ni-NTA column (pET28a(+), pET24a(+)) and glutathione column (pGST4.5) were used for the purification.
PAK4 kinase domain enzymatic assay conditions: the enzymatic activity of PAK4 KD was measured by its ability to catalyze the transfer of a phosphate residue from a nucleoside triphosphate to an amino acid side chain of a commercially available peptide (amino acid sequence […]). The conversion of ATP to ADP accompanies the catalytic reaction. The PAK4 KD catalyzed production of ADP from ATP was coupled to the oxidation of NADH through the activities of pyruvate kinase (PK) and lactate dehydrogenase (LDH). The conversion of NADH to NAD^+ is monitored by the decrease in absorbance at 340 nm (e340=6.22 cm^−1mM^−1) using a Molecular Devices SPECTRAMAX 190 in conjunction with the Biomec FX. Typical reaction solutions contain 2 mM phosphoenolpyruvate, 0.35 mM NADH, 10 mM MgCl2, 1 mM DTT, 0.4 mM peptide ([…]) 0.04 mM ATP, 1 units/mL PK, 1 units/mL LDH, 0.01% Tween 20 in 50 mM HEPES, pH 7.5. […] The PAK KD Ki of each compound of the invention (the inhibitor) was calculated based on multiple of Percent Inhibition numbers of the inhibitor at different inhibitor concentrations. The peptide (amino sequence […]) was purchased from American Peptide Company. NADH, MgCl2, HEPES, DTT, ATP and PK/LDH were purchased from Sigma. Tween 20 was purchased from Calbiochem.

[2] = biological target: PAK4 kinase activity in whole cells (TR-293-KDG, modified HEK 293 overexpressing GEF-H1b and PAK4 KD) (Homo sapiens (Human), UniProt O96013); assay: PAK4 cellular assay: sandwich ELISA of PAK4-dependent phosphorylation of GEF-H1b in TR-293-KDG cells; format: cell-based; settings: doxycycline-induced, 3-hour exposure, phospho-GEF-H1b ELISA
Description: A sandwich ELISA method was used to measure the PAK4 kinase activity in whole cells. The level of PAK4-dependent phosphorylation of GEF-H1b can be determined by monitoring the binding of a phosphospecific antibody to GEF-H1b. A modified HEK 293 cell line is used in the bioassay and it has been engineered to overexpress both GEF-H1b and the kinase domain (KD) of PAK4. The KD of PAK4 is inducible in this cell line by tetracycline (Trex system, Invitrogen). The name of this cell line has been designated TR-293-KDG. To establish a phosphorylation event on GEF-H1, cells are induced with doxycycline to express the PAK4 KD. […] Candidate substance effect is measured as the ability to block this phosphorylation event.
ELISA plate was prepared by pre-coating the plates with a capture antibody (α-HA-tag mouse monoclonal antibody), blocked with BSA, and washed in 0.1% tween 20 in tris-buffered saline (TBST). Tissue culture plates (precoated with poly-D-lysine) were seeded with TR-293-KDG cells. The TR-293-KDG Cells were induced to express the PAK4 KD with doxycycline overnight and subsequently & concomitantly treated with candidate substances or diluent for an additional 3-hour, continuous exposure. Cells were then lysed with a modified RIPA buffer supplemented with protease inhibitors. The fresh whole cell lysates were then added to the ELISA plate for 2-hours. Between all subsequent steps plates were washed 4 times with TBST. Detection antibody (recognizing the phospho-specific eptitope on GEF-H1b) was added for 1 hour, followed by addition of an enzyme linked goat α-rabbit secondary antibody for 45 minutes. […] EC50 values were calculated by sigmoid curve fitting using a four-parameter analysis.

[3] = PAK4 kinase domain, 25 nM PAK4 KD, 0.04 mM ATP, pH 7.5

PAK4 kinase domain (PAK4 KD), sequence (O96013 321-572): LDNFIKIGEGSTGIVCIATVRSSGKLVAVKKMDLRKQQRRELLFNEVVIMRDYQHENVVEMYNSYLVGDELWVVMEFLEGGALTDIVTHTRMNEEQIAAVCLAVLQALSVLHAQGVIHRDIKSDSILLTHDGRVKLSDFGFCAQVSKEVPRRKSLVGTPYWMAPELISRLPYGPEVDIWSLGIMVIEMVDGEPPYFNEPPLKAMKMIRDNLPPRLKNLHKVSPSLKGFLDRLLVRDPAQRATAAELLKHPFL
PAK4 kinase activity in whole cells (TR-293-KDG, modified HEK 293 overexpressing GEF-H1b and PAK4 KD), sequence (O96013 321-572): as above

| Compound | Ki [1, 3] [nM] | EC50 [2] [nM] | Ki [1] [nM] |
| --- | --- | --- | --- |
| Cc1ncnc(Nc2n[nH]c3c2CN(C(=O)O[C@H](CN(C)C)c2ccccc2)C3(C)C)c1F [Example 77, (1S)-2-(dimethylamino)-1-phenylethyl 3-[(5-fluoro-6-methylpyrimidin-4-yl)amino]-6,6-dimethyl-4,6-dihydropyrrolo[3,4-c]pyrazole-5(1H)-carboxylate] | 93 | 69 | – |
| COc1ncc(F)c(Nc2n[nH]c3c2CN(C(=O)N[C@@H]2C[C@H]2c2ccccc2)C3(C)C)n1 (relative stereo) [Example 43, 3-[(5-fluoro-2-methoxypyrimidin-4-yl)amino]-6,6-dimethyl-N-[trans-2-phenylcyclopropyl]-4,6-dihydropyrrolo[3,4-c]pyrazole-5(1H)-carboxamide] | 450 | > 4000 | – |
| Cc1nc(Nc2n[nH]c3c2CN(C(=O)N[C@@H]2C[C@H]2c2ccccc2)C3(C)C)cc(N2CCOCC2)n1 (relative stereo) [Example 34, 6,6-dimethyl-3-[(2-methyl-6-morpholin-4-ylpyrimidin-4-yl)amino]-N-[trans-2-phenylcyclopropyl]-4,6-dihydropyrrolo[3,4-c]pyrazole-5(1H)-carboxamide] | 21 | 778 | – |
| CN(C)C[C@@H](NC(=O)N1Cc2c(Nc3ncnc4ccsc34)n[nH]c2C1(C)C)c1ccccc1 [Example 5, N-[(1S)-2-(dimethylamino)-1-phenylethyl]-6,6-dimethyl-3-(thieno[3,2-d]pyrimidin-4-ylamino)-4,6-dihydropyrrolo[3,4-c]pyrazole-5(1H)-carboxamide] | 220 | 87 | – |
| CN(C)C[C@@H](NC(=O)N1Cc2c(Nc3ccnc(C#N)n3)n[nH]c2C1(C)C)c1ccccc1 [Example 60, 3-[(2-cyanopyrimidin-4-yl)amino]-N-[(1S)-2-(dimethylamino)-1-phenylethyl]-6,6-dimethyl-4,6-dihydropyrrolo[3,4-c]pyrazole-5(1H)-carboxamide] | 40 | < 3.9 | – |
| CN1CCN(C(=O)N2Cc3c(Nc4nc(Cl)nc5ccsc45)n[nH]c3C2(C)C)[C@@H](Cc2ccccc2)C1 [Example 3, N-(5-{[(2S)-2-benzyl-4-methylpiperazin-1-yl]carbonyl}-6,6-dimethyl-1,4,5,6 tetrahydropyrrolo[3,4-c]pyrazol-3-yl)-2-chlorothieno[3,2-d]pyrimidin-4-amine] | 11 | 16 | – |
| Cc1nc(Nc2n[nH]c3c2CN(C(=O)N[C@@H]2C[C@H]2c2ccccc2)C3(C)C)cc(N(C)C)n1 (relative stereo) [Example 38, 3-{[6-(dimethylamino)-2-methylpyrimidin-4-yl]amino}-6,6-dimethyl-N-[trans-2-phenylcyclopropyl]-4,6-dihydropyrrolo[3,4-c]pyrazole-5(1H)-carboxamide] | 96 | 1470 | – |
| CCOc1ncc(F)c(Nc2n[nH]c3c2CN(C(=O)N[C@H](CN(C)C)c2ccccc2)C3(C)C)n1 [Example 59, N-[(1S)-2-(dimethylamino)-1-phenylethyl]-3-[(2-ethoxy-5-fluoropyrimidin-4-yl)amino]-6,6-dimethyl-4,6-dihydropyrrolo[3,4-c]pyrazole-5(1H)-carboxamide] | 170 | 2.4 | – |
| CN(C)C[C@@H](NC(=O)N1Cc2c(Nc3ncnc4ccoc34)n[nH]c2C1(C)C)c1ccccc1 [Example 83, N-[(1S)-2-(dimethylamino)-1-phenylethyl]-3-(furo[3,2-d]pyrimidin-4-ylamino)-6,6-dimethyl-4,6-dihydropyrrolo[3,4-c]pyrazole-5(1H)-carboxamide] | 58 | 84 | – |
| Cc1nc(Nc2n[nH]c3c2CN(C(=O)N[C@H](CN(C)C)c2ccccc2)C3(C)C)c2ccsc2n1 [Example 58, N-[(1S)-2-(dimethylamino)-1-phenylethyl]-6,6-dimethyl-3-[(2-methylthieno[2,3-d]pyrimidin-4-yl)amino]-4,6-dihydropyrrolo[3,4-c]pyrazole-5(1H)-carboxamide] | – | 2.5 | 14 |
| CCOc1ncc(F)c(Nc2n[nH]c3c2CN(C(=O)O[C@H](CN(C)C)c2ccccc2)C3(C)C)n1 [Example 72, (1S)-2-(dimethylamino)-1-phenylethyl 3-[(2-ethoxy-5-fluoropyrimidin-4-yl)amino]-6,6-dimethyl-4,6-dihydro-pyrrolo[3,4-c]pyrazole-5(1H)-carboxylate] | 16 | 4.4 | – |
| CN(C)C[C@@H](OC(=O)N1Cc2c(Nc3ncncc3F)n[nH]c2C1(C)C)c1ccccc1 [Example 80, (1S)-2-(dimethylamino)-1-phenylethyl 3-[(5-fluoropyrimidin-4-yl)amino]-6,6-dimethyl-4,6-dihydropyrrolo[3,4-c]pyrazole-5(1H)-carboxylate] | 120 | 20 | – |
| Cc1ncc(F)c(Nc2n[nH]c3c2CN(C(=O)N[C@@H]2C[C@H]2c2ccccc2)C3(C)C)n1 (relative stereo) [Example 44, 3-[(5-fluoro-2-methylpyrimidin-4-yl)amino]-6,6-dimethyl-N-[trans-2-phenylcyclopropyl]-4,6-dihydropyrrolo[3,4-c]pyrazole-5(1H)-carboxamide] | 230 | > 4000 | – |
| COc1ncc(F)c(Nc2n[nH]c3c2CN(C(=O)N[C@H](CN(C)C)c2ccccc2)C3(C)C)n1 [Example 66, N-[(1S)-2-(dimethylamino)-1-phenylethyl]-3-[(5-fluoro-2-methoxypyrimidin-4-yl)amino]-6,6-dimethyl-4,6-dihydropyrrolo[3,4-c]pyrazole-5(1H)-carboxamide] | 170 | < 3.9 | – |
| Cc1nc(Nc2n[nH]c3c2CN(C(=O)N[C@@H]2C[C@H]2c2ccccc2)C3(C)C)c2ccccc2n1 (relative stereo) [Example 84, 3-[(2-methylquinazolin-4-yl)amino]-6,6-dimethyl-N-[trans-2-phenylcyclopropyl]-4,6-dihydropyrrolo[3,4-c]pyrazole-5(1H)-carboxamide] | 34 | 455 | – |
| CN(C)C[C@@H](OC(=O)N1Cc2c(Nc3ncnc4ccsc34)n[nH]c2C1(C)C)c1ccccc1 [Example 68, (1S)-2-(dimethylamino)-1-phenylethyl 6,6-dimethyl-3-(thieno[3,2-d]pyrimidin-4-ylamino)-4,6-dihydropyrrolo[3,4-c]pyrazole-5(1H)-carboxylate] | 6.7 | 20 | – |
| CC1(C)c2[nH]nc(Nc3nc(Cl)nc4ccsc34)c2CN1C(=O)N[C@@H]1C[C@H]1c1ccccc1 (relative stereo) [Example 2, 3-[(2-chlorothieno[3,2-d]pyrimidin-4-yl)amino]-6,6-dimethyl-N-[trans-2-phenylcyclopropyl]-4,6-dihydropyrrolo[3,4-c]pyrazole-5(1H)-carboxamide] | 14 | 36 | – |
| Cc1nccc(Nc2n[nH]c3c2CN(C(=O)N[C@H](CN(C)C)c2ccccc2)C3(C)C)n1 [Example 65, N-[(1S)-2-(dimethylamino)-1-phenylethyl]-6,6-dimethyl-3-[(2-methylpyrimidin-4-yl)amino]-4,6-dihydropyrrolo[3,4-c]pyrazole-5(1H)-carboxamide] | 680 | 67.1 | – |
| CCCOc1nc(Cl)nc(Nc2n[nH]c3c2CN(C(=O)N[C@@H]2C[C@H]2c2ccccc2)C3(C)C)n1 (relative stereo) [Example 7, 3-[(4-chloro-6-propoxy-1,3,5-triazin-2-yl)amino]-6,6-dimethyl-N-[trans-2-phenylcyclopropyl]-4,6-dihydropyrrolo[3,4-c]pyrazole-5(1H)-carboxamide] | 87 | > 4000 | – |
